Each compound was assayed against T1, pancreatic lipase (Sus scrofa, UniProt P00591) (assay: fluorescent 4-MU oleate hydrolysis assay, type VI-S pancreatic lipase). Conditions: not given.
T1 construct: gene PNLIP
T1 sequence (P00591 1-450): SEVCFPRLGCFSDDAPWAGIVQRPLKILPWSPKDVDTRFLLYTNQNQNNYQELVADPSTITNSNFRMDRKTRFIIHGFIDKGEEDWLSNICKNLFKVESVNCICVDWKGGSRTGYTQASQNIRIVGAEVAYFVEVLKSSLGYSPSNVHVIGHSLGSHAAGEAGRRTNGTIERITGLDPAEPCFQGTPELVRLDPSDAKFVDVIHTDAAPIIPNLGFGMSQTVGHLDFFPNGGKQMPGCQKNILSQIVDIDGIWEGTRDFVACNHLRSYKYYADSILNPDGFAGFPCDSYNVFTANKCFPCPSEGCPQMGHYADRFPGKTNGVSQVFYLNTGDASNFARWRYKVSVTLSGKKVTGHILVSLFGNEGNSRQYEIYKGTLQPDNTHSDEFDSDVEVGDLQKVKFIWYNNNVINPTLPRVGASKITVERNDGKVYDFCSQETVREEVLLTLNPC
Format: biochemical

Compound	IC50 [nM]
O=C(Oc1cc(O)cc2c1C[C@@H](OC(=O)c1cc(O)c(O)c(O)c1)[C@@H](c1cc(O)c(O)c(O)c1)O2)c1cc(O)c(O)c(O)c1 [compound 8, (−)-epigallocatechin-3,5-di-O-gallate]	110
O=C(OC1Cc2c(O)cc(O)c(Cc3c(O)cc(O)c4c3OC(c3cc(O)c(O)c(O)c3)C(OC(=O)c3cc(O)c(O)c(O)c3)C4)c2OC1c1cc(O)c(O)c(O)c1)c1cc(O)c(O)c(O)c1 (centres unmarked) [compound 20, oolonghomobisflavan A]	110
O=C(O[C@@H]1[C@@H](c2c(O)cc(O)c3c2O[C@H](c2cc(O)c(O)c(O)c2)[C@H](OC(=O)c2cc(O)c(O)c(O)c2)C3)c2c(O)cc(O)cc2O[C@@H]1c1cc(O)c(O)c(O)c1)c1cc(O)c(O)c(O)c1 [compound 29, prodelphinidin B2-3,3′-di-O-gallate]	100
O=C(O[C@@H]1Cc2c(O)cc(O)cc2O[C@@H]1c1cc(O)c(O)c2c(=O)c(O)cc([C@H]3Oc4cc(O)cc(O)c4C[C@H]3O)cc12)c1cc(O)c(O)c(O)c1 [compound 33, theaflavin-3′-O-gallate]	130
O=C(O[C@@H]1Cc2c(O)cc(O)cc2O[C@@H]1c1cc(O)c(O)c(O)c1-c1c([C@H]2Oc3cc(O)cc(O)c3C[C@H]2OC(=O)c2cc(O)c(O)c(O)c2)cc(O)c(O)c1O)c1cc(O)c(O)c(O)c1 [compound 35, theasinensin A]	150
(−)-epicatechin-3-O-gallate [compound 4]	340
(−)-epigallocatechin-3-O-gallate [compound 7]	390

The compounds below were run against T1, pancreatic lipase (assay: biochemical). Conditions: not given.

Compound	IC50 [nM]
Oc1cc(O)c2c(c1)O[C@H](c1ccc(O)c(O)c1)[C@H](O)C2 [compound 3, (−)-epicatechin (EC)]	> 30000
O=C(O[C@@H]1Cc2c(O)cc(O)cc2O[C@H]1c1cc(O)c(O)c(O)c1)c1cc(O)c(O)c(O)c1 [compound 6, (−)-gallocatechin-3-O-gallate (GCG)]	570
COc1cc(C(=O)O[C@@H]2Cc3c(O)cc(O)cc3O[C@@H]2c2ccc(O)c(O)c2)cc(O)c1O [compound 9, (−)-epicatechin 3-O-(3′-O-methyl)-gallat]	740
O=C(/C=C/c1ccc(O)cc1)O[C@@H]1Cc2c(O)cc(O)cc2O[C@@H]1c1cc(O)c(O)c(O)c1 [compound 10, (−)-epigallocatechin-3-O-p-coumaroate]	970
O=C(O[C@@H]1Cc2c(O)cc(O)cc2O[C@@H]1c1ccc(O)cc1)c1cc(O)c(O)c(O)c1 [compound 15, (−)-epiafzelechin 3-O-gallate]	2810
Oc1cc(O)c2c(c1)O[C@H](c1ccc(O)c(O)c1)[C@@H](O)[C@@H]2c1c(O)cc(O)c2c1O[C@H](c1cc(O)c(O)c(O)c1)[C@H](O)C2 [compound 16, (+)-catechin (4α-8) (−)-epigallocatechin]	8700

Second part, the compound after the results:

IC50 [nM]	Compound
8750	Oc1cc(O)c2c(c1)O[C@H](c1ccc(O)c(O)c1)[C@H](O)[C@H]2c1c(O)cc(O)c2c1O[C@H](c1ccc(O)c(O)c1)[C@H](O)C2 [compound 23, procyanidin B2]
3280	Oc1cc(O)c2c(c1)O[C@H](c1ccc(O)c(O)c1)[C@@H](O)[C@@H]2c1c(O)cc(O)c2c1O[C@H](c1ccc(O)c(O)c1)[C@@H](O)C2 [compound 24, procyanidin B3]
17300	Oc1cc(O)c2c(c1)O[C@H](c1ccc(O)c(O)c1)[C@@H](O)[C@@H]2c1c(O)cc(O)c2c1O[C@H](c1ccc(O)c(O)c1)[C@H](O)C2 [compound 25, procyanidin B4]
3240	Oc1cc(O)c2c(c1)O[C@H](c1cc(O)c(O)c(O)c1)[C@H](O)[C@H]2c1c(O)cc(O)c2c1O[C@H](c1cc(O)c(O)c(O)c1)[C@H](O)C2 [compound 27, prodelphinidin B2]
6850	Oc1cc(O)c2c(c1)O[C@H](c1cc(O)c(O)c(O)c1)[C@@H](O)[C@@H]2c1c(O)cc(O)c2c1O[C@H](c1cc(O)c(O)c(O)c1)[C@H](O)C2 [compound 30, prodelphinidin B4]
300	O=C(O[C@@H]1Cc2c(O)cc(O)cc2O[C@@H]1c1cc(O)c(O)c(O)c1-c1c([C@H]2Oc3cc(O)cc(O)c3C[C@H]2O)cc(O)c(O)c1O)c1cc(O)c(O)c(O)c1 [compound 36, theasinensin B]
16400	Oc1cc(O)c2c(c1)O[C@H](c1cc(O)c(O)c(O)c1-c1c([C@H]3Oc4cc(O)cc(O)c4C[C@H]3O)cc(O)c(O)c1O)[C@H](O)C2 [compound 37, theasinensin C]

Same assay, conditions: inhibitor

IC50 [nM]	Compound
130	O=C(OC1Cc2c(O)cc(O)c(C(c3cc(O)c(O)c(O)c3)C(Cc3c(O)cc(O)cc3O)OC(=O)c3cc(O)c(O)c(O)c3)c2OC1c1cc(O)c(O)c(O)c1)c1cc(O)c(O)c(O)c1 (centres unmarked) [compound 1, assamicain A]
160	O=C(O[C@@H]1Cc2c(O)cc(O)c([C@H]3c4c(O)cc(O)cc4O[C@H](c4ccc(O)c(O)c4)[C@@H]3O)c2O[C@@H]1c1cc(O)c(O)c(O)c1)c1cc(O)c(O)c(O)c1 [compound 11, (−)-epicatechin(4β-8)-(−)-epigallocatechin 3-O-gallate]
1230	O=C(O[C@@H]1Cc2c(O)cc(O)c([C@H]3c4c(O)cc(O)cc4O[C@H](c4cc(O)c(O)c(O)c4)[C@@H]3O)c2O[C@@H]1c1ccc(O)c(O)c1)c1cc(O)c(O)c(O)c1 [compound 12, (−)-epigallocatechin (4β-8)-(−)-epicatechin-3-O-gallate]
930	O=C(O[C@@H]1[C@@H](c2c(O)cc(O)c3c2O[C@H](c2cc(O)c(O)c(O)c2)[C@H](OC(=O)c2cc(O)c(O)c(O)c2)C3)c2c(O)cc(O)cc2O[C@@H]1c1ccc(O)c(O)c1)c1cc(O)c(O)c(O)c1 [compound 13, (−)-epicatechin-3-O-gallate-(4β-8)-(−)-epigallocatechin3-O-gallate]
690	O=C(O[C@@H]1[C@@H](c2c(O)cc(O)c3c2O[C@H](c2ccc(O)c(O)c2)[C@H](OC(=O)c2cc(O)c(O)c(O)c2)C3)c2c(O)cc(O)cc2O[C@@H]1c1cc(O)c(O)c(O)c1)c1cc(O)c(O)c(O)c1 [compound 14, (−)-epigallocatechin-3-O-gallate-(4β-8)-(−)-epicatechin 3-O-gallate]
190	O=C(O[C@@H]1Cc2c(O)cc(O)c([C@@H]3c4c(O)cc(O)cc4O[C@H](c4ccc(O)c(O)c4)[C@H]3O)c2O[C@@H]1c1cc(O)c(O)c(O)c1)c1cc(O)c(O)c(O)c1 [compound 17, (+)-catechin (4α-8) (−)-epigallocatechin 3-O-gallate]

From article PMC5046073, “Prediction and evaluation of the lipase inhibitory activities of tea polyphenols with 3D-QSAR models” (Scientific Reports, 2016)
